Among the data in the NIST ThermoML archive (doi:10.1016/j.jct.2012.01.019) are activity coefficient values, retold here.

Numbers after ± are expanded uncertainties.

This series can be described thus: activity coefficient (dimensionless); of the first substance listed, at infinite dilution; xn = mol fraction of the nth substance listed. Conditions: 101 kPa, Liquid, Chromatography, x1 = 0.

Regarding `CCO` [ethanol] + COCC[N+]1(C)CCCCC1.O=S(=O)([N-]S(=O)(=O)C(F)(F)F)C(F)(F)F, the activity coefficient by setting is: (318.15 K) 1.73 ± 0.12; (328.15 K) 1.58 ± 0.1; (338.15 K) 1.45 ± 0.1; (348.15 K) 1.33 ± 0.09; (358.15 K) 1.24 ± 0.08; (368.15 K) 1.16 ± 0.07.
For `CCOC(C)=O` [ethyl acetate] + COCC[N+]1(C)CCCCC1.O=S(=O)([N-]S(=O)(=O)C(F)(F)F)C(F)(F)F, the activity coefficient reads like this: (318.15 K) 0.916 ± 0.058; (328.15 K) 0.932 ± 0.059; (338.15 K) 0.948 ± 0.06; (348.15 K) 0.963 ± 0.061; (358.15 K) 0.975 ± 0.061; (368.15 K) 0.989 ± 0.062.
On to `CCc1ccccc1` [ethylbenzene] + COCC[N+]1(C)CCCCC1.O=S(=O)([N-]S(=O)(=O)C(F)(F)F)C(F)(F)F, for which the activity coefficient by setting is: (318.15 K) 1.92 ± 0.13; (328.15 K) 1.93 ± 0.13; (338.15 K) 1.93 ± 0.13; (348.15 K) 1.94 ± 0.13; (358.15 K) 1.94 ± 0.13; (368.15 K) 1.95 ± 0.13.
On to `CCCCCCC` [heptane] + COCC[N+]1(C)CCCCC1.O=S(=O)([N-]S(=O)(=O)C(F)(F)F)C(F)(F)F, for which the activity coefficient is 24.5 ± 1.1 (318.15 K); 22.9 ± 1.1 (328.15 K); 21.2 ± 1 (338.15 K); 19.8 ± 0.9 (348.15 K); 18.4 ± 0.9 (358.15 K); 17.5 ± 0.8 (368.15 K).
In the case of `C=CCCCC` [hex-1-ene] + COCC[N+]1(C)CCCCC1.O=S(=O)([N-]S(=O)(=O)C(F)(F)F)C(F)(F)F, the activity coefficient by setting is: (318.15 K) 8.78 ± 0.6; (328.15 K) 8.38 ± 0.57; (338.15 K) 8.05 ± 0.55; (348.15 K) 7.69 ± 0.52; (358.15 K) 7.45 ± 0.51; (368.15 K) 7.22 ± 0.49.
For `CCCCCC` [hexane] + COCC[N+]1(C)CCCCC1.O=S(=O)([N-]S(=O)(=O)C(F)(F)F)C(F)(F)F, the activity coefficient is, setting by setting: (318.15 K) 16.9 ± 0.8; (328.15 K) 16 ± 0.7; (338.15 K) 15.1 ± 0.7; (348.15 K) 14.2 ± 0.7; (358.15 K) 13.5 ± 0.6; (368.15 K) 13 ± 0.6.
With `CO` [methanol] + COCC[N+]1(C)CCCCC1.O=S(=O)([N-]S(=O)(=O)C(F)(F)F)C(F)(F)F, the activity coefficient was 1.37 ± 0.09 (318.15 K); 1.26 ± 0.08 (328.15 K); 1.17 ± 0.07 (338.15 K); 1.08 ± 0.07 (348.15 K); 1 ± 0.06 (358.15 K); 0.942 ± 0.059 (368.15 K).
Consider `CCCC(=O)OC` [methyl butanoate] + COCC[N+]1(C)CCCCC1.O=S(=O)([N-]S(=O)(=O)C(F)(F)F)C(F)(F)F, for which the activity coefficient is, setting by setting: (318.15 K) 1.22 ± 0.08; (328.15 K) 1.23 ± 0.08; (338.15 K) 1.24 ± 0.08; (348.15 K) 1.25 ± 0.08; (358.15 K) 1.26 ± 0.08; (368.15 K) 1.27 ± 0.08.
With `COC(C)=O` [methyl ethanoate] + COCC[N+]1(C)CCCCC1.O=S(=O)([N-]S(=O)(=O)C(F)(F)F)C(F)(F)F, the activity coefficient (318.15 K) stood at 0.7 ± 0.047; the activity coefficient (328.15 K) came to 0.714 ± 0.048; the activity coefficient (338.15 K) worked out at 0.726 ± 0.048; the activity coefficient (348.15 K) was found to be 0.74 ± 0.049; the activity coefficient (358.15 K) is 0.751 ± 0.049; the activity coefficient (368.15 K) is 0.763 ± 0.05.
For `CCC(=O)OC` [methyl propanoate] + COCC[N+]1(C)CCCCC1.O=S(=O)([N-]S(=O)(=O)C(F)(F)F)C(F)(F)F, the activity coefficient (318.15 K) came to 0.888 ± 0.057; the activity coefficient (328.15 K) worked out at 0.904 ± 0.057; the activity coefficient (338.15 K) came out at 0.92 ± 0.058; the activity coefficient (348.15 K) was 0.936 ± 0.059; the activity coefficient (358.15 K) came out at 0.95 ± 0.06; the activity coefficient (368.15 K) is 0.966 ± 0.061.
In the case of `CC1CCCCC1` [methylcyclohexane] + COCC[N+]1(C)CCCCC1.O=S(=O)([N-]S(=O)(=O)C(F)(F)F)C(F)(F)F, the activity coefficient by setting is: (318.15 K) 13.5 ± 0.6; (328.15 K) 12.7 ± 0.6; (338.15 K) 12 ± 0.6; (348.15 K) 11.2 ± 0.5; (358.15 K) 10.6 ± 0.5; (368.15 K) 10.2 ± 0.5.
Regarding `CCCCCCCCC` [nonane] + COCC[N+]1(C)CCCCC1.O=S(=O)([N-]S(=O)(=O)C(F)(F)F)C(F)(F)F, the activity coefficient reads like this: (318.15 K) 50.8 ± 2.4; (328.15 K) 46.3 ± 2.2; (338.15 K) 42 ± 2; (348.15 K) 38.2 ± 1.8; (358.15 K) 35.1 ± 1.6; (368.15 K) 32.4 ± 1.5.
As to `C=CCCCCCC` [oct-1-ene] + COCC[N+]1(C)CCCCC1.O=S(=O)([N-]S(=O)(=O)C(F)(F)F)C(F)(F)F, the activity coefficient reads like this: (318.15 K) 18.1 ± 1.2; (328.15 K) 17 ± 1.2; (338.15 K) 16.1 ± 1.1; (348.15 K) 15.1 ± 1; (358.15 K) 14.4 ± 1; (368.15 K) 13.8 ± 0.9.
Take `CCCCCCCC` [octane] + COCC[N+]1(C)CCCCC1.O=S(=O)([N-]S(=O)(=O)C(F)(F)F)C(F)(F)F: the activity coefficient stood at 35.4 ± 1.6 (318.15 K); 32.6 ± 1.5 (328.15 K); 30 ± 1.4 (338.15 K); 27.6 ± 1.3 (348.15 K); 25.6 ± 1.2 (358.15 K); 23.8 ± 1.1 (368.15 K).
`CCCC(C)=O` [pentan-2-one] + COCC[N+]1(C)CCCCC1.O=S(=O)([N-]S(=O)(=O)C(F)(F)F)C(F)(F)F: the activity coefficient by setting is: (318.15 K) 0.786 ± 0.051; (328.15 K) 0.801 ± 0.052; (338.15 K) 0.813 ± 0.053; (348.15 K) 0.825 ± 0.053; (358.15 K) 0.837 ± 0.054; (368.15 K) 0.849 ± 0.054.
In the case of `CCC(=O)CC` [pentan-3-one] + COCC[N+]1(C)CCCCC1.O=S(=O)([N-]S(=O)(=O)C(F)(F)F)C(F)(F)F, the activity coefficient is 0.785 ± 0.051 (318.15 K); 0.801 ± 0.052 (328.15 K); 0.821 ± 0.053 (338.15 K); 0.838 ± 0.054 (348.15 K); 0.852 ± 0.055 (358.15 K); 0.869 ± 0.056 (368.15 K).
Consider `CCCCC` [pentane] + COCC[N+]1(C)CCCCC1.O=S(=O)([N-]S(=O)(=O)C(F)(F)F)C(F)(F)F, for which the activity coefficient reads like this: (318.15 K) 11.8 ± 0.5; (328.15 K) 11.3 ± 0.5; (338.15 K) 10.8 ± 0.5; (348.15 K) 10.3 ± 0.5; (358.15 K) 9.86 ± 0.45; (368.15 K) 9.48 ± 0.44.
`CCCO` [propan-1-ol] + COCC[N+]1(C)CCCCC1.O=S(=O)([N-]S(=O)(=O)C(F)(F)F)C(F)(F)F: the activity coefficient by setting is: (318.15 K) 2.13 ± 0.14; (328.15 K) 1.93 ± 0.13; (338.15 K) 1.77 ± 0.12; (348.15 K) 1.61 ± 0.11; (358.15 K) 1.5 ± 0.1; (368.15 K) 1.4 ± 0.09.
Regarding `CC(C)O` [propan-2-ol] + COCC[N+]1(C)CCCCC1.O=S(=O)([N-]S(=O)(=O)C(F)(F)F)C(F)(F)F, the activity coefficient by setting is: (318.15 K) 1.92 ± 0.13; (328.15 K) 1.76 ± 0.12; (338.15 K) 1.61 ± 0.11; (348.15 K) 1.47 ± 0.1; (358.15 K) 1.37 ± 0.09; (368.15 K) 1.28 ± 0.08.
`c1ccncc1` [pyridine] + COCC[N+]1(C)CCCCC1.O=S(=O)([N-]S(=O)(=O)C(F)(F)F)C(F)(F)F: the activity coefficient runs as follows: (318.15 K) 0.548 ± 0.04; (328.15 K) 0.555 ± 0.04; (338.15 K) 0.562 ± 0.04; (348.15 K) 0.57 ± 0.041; (358.15 K) 0.577 ± 0.041; (368.15 K) 0.583 ± 0.041.
For the compound `C=Cc1ccccc1` [styrene] + COCC[N+]1(C)CCCCC1.O=S(=O)([N-]S(=O)(=O)C(F)(F)F)C(F)(F)F, the activity coefficient runs as follows: (318.15 K) 1.08 ± 0.07; (328.15 K) 1.1 ± 0.07; (338.15 K) 1.13 ± 0.07; (348.15 K) 1.14 ± 0.07; (358.15 K) 1.16 ± 0.07; (368.15 K) 1.19 ± 0.08.
For `C1CCOC1` [tetrahydrofuran] + COCC[N+]1(C)CCCCC1.O=S(=O)([N-]S(=O)(=O)C(F)(F)F)C(F)(F)F, the activity coefficient reads like this: (318.15 K) 0.76 ± 0.05; (328.15 K) 0.773 ± 0.051; (338.15 K) 0.787 ± 0.051; (348.15 K) 0.799 ± 0.052; (358.15 K) 0.809 ± 0.052; (368.15 K) 0.821 ± 0.053.
With `c1ccsc1` [thiophene] + COCC[N+]1(C)CCCCC1.O=S(=O)([N-]S(=O)(=O)C(F)(F)F)C(F)(F)F, the activity coefficient is, setting by setting: (318.15 K) 0.787 ± 0.051; (328.15 K) 0.798 ± 0.052; (338.15 K) 0.808 ± 0.052; (348.15 K) 0.819 ± 0.053; (358.15 K) 0.829 ± 0.053; (368.15 K) 0.839 ± 0.054.
For `Cc1ccccc1` [toluene] + COCC[N+]1(C)CCCCC1.O=S(=O)([N-]S(=O)(=O)C(F)(F)F)C(F)(F)F, the activity coefficient turned out to be 1.29 ± 0.08 (318.15 K); 1.3 ± 0.08 (328.15 K); 1.32 ± 0.09 (338.15 K); 1.33 ± 0.09 (348.15 K); 1.34 ± 0.09 (358.15 K); 1.35 ± 0.09 (368.15 K).
On to `O` [water] + COCC[N+]1(C)CCCCC1.O=S(=O)([N-]S(=O)(=O)C(F)(F)F)C(F)(F)F, for which the activity coefficient worked out at 3.35 ± 0.23 (318.15 K); 2.93 ± 0.2 (328.15 K); 2.62 ± 0.18 (338.15 K); 2.33 ± 0.16 (348.15 K); 2.07 ± 0.14 (358.15 K); 1.87 ± 0.13 (368.15 K).
